Patent US20150094474A1, “AGRICULTURAL CHEMICALS” (Redx Pharma Ltd., priority 2012, published 2015)

System: Chinese cabbage
Assay: Herbicidal bioassay, Chinese cabbage (% necrosis)
Assay type: in vivo
Method: A laboratory bioassay was conducted to screen ten compounds (Fluazifop (25); Ethyl fluazifop (62); five fluazifop analogues: 27, 28, 63, 64 and 65; mesofulfuron (6); and two mesosulfuron analogues: 8 and 61. for activity against Lolium perenne, barley, peas and Chinese cabbage. Compounds were diluted in DMSO. Controls were performed using both DMSO and water.
Plants were obtained as seeds and were grown to the 2-4 true leaf stage. Plants were grown individually in seed trays. Each plant (in an approximately 3 cm diameter plug) was then detached from the tray for spraying. Environmental conditions were closely monitored and recorded and were within the optimal range of the target species.
The compounds were screened at a range of six concentrations, eg. 0.05%, 0.01%, 0.005%, 0.001%, 0.0005% and 0.0001%. Treatments will be applied directly onto the plants, using a potter tower.
One plant of each type will be sprayed using a potter tower. The 4 different types of weeds will be placed in a 10 cm diameter area underneath the potter sprayer and sprayed simultaneously. The growth of the plants and any Phytotoxicity effects will then be assessed at specified growth intervals, according to EPPO guideline PP1/135. Five replicates will be performed for each treatment, for each species.

SMILES: CCOC(=O)C(C)Oc1ccc(Oc2ccc(C(F)(F)F)cn2)cc1 (stereo not drawn) [Fluazifop Ethyl ester (62)]
- Sum of % necrosis in Chinese cabbage (Dose 0.000001, Day 0): C (less than 50% necrosis)
- Sum of % necrosis in Chinese cabbage (Dose 0.000001, Day 1): C (less than 50% necrosis)
- Sum of % necrosis in Chinese cabbage (Dose 0.000001, Day 3): C (less than 50% necrosis)
- Sum of % necrosis in Chinese cabbage (Dose 0.000001, Day 7): C (less than 50% necrosis)
- Sum of % necrosis in Chinese cabbage (Dose 0.000001, Day 10): C (less than 50% necrosis)
- Sum of % necrosis in Chinese cabbage (Dose 0.000001, Day 14): C (less than 50% necrosis)
- Sum of % necrosis in Chinese cabbage (Dose 0.000001, Day 21): C (less than 50% necrosis)
- Sum of % necrosis in Chinese cabbage (Dose 0.000005, Day 0): C (less than 50% necrosis)
- Sum of % necrosis in Chinese cabbage (Dose 0.000005, Day 1): C (less than 50% necrosis)
- Sum of % necrosis in Chinese cabbage (Dose 0.000005, Day 3): C (less than 50% necrosis)
- Sum of % necrosis in Chinese cabbage (Dose 0.000005, Day 7): C (less than 50% necrosis)
- Sum of % necrosis in Chinese cabbage (Dose 0.000005, Day 10): A (over 80% necrosis)
- Sum of % necrosis in Chinese cabbage (Dose 0.000005, Day 14): A (over 80% necrosis)
- Sum of % necrosis in Chinese cabbage (Dose 0.000005, Day 21): A (over 80% necrosis)
- Sum of % necrosis in Chinese cabbage (Dose 0.00001, Day 0): C (less than 50% necrosis)
- Sum of % necrosis in Chinese cabbage (Dose 0.00001, Day 1): C (less than 50% necrosis)
- Sum of % necrosis in Chinese cabbage (Dose 0.00001, Day 3): C (less than 50% necrosis)
- Sum of % necrosis in Chinese cabbage (Dose 0.00001, Day 7): C (less than 50% necrosis)
- Sum of % necrosis in Chinese cabbage (Dose 0.00001, Day 10): B (50%-80% necrosis)
- Sum of % necrosis in Chinese cabbage (Dose 0.00001, Day 14): A (over 80% necrosis)
- Sum of % necrosis in Chinese cabbage (Dose 0.00001, Day 21): A (over 80% necrosis)
- Sum of % necrosis in Chinese cabbage (Dose 0.00005, Day 0): C (less than 50% necrosis)
- Sum of % necrosis in Chinese cabbage (Dose 0.00005, Day 1): C (less than 50% necrosis)
- Sum of % necrosis in Chinese cabbage (Dose 0.00005, Day 3): C (less than 50% necrosis)
- Sum of % necrosis in Chinese cabbage (Dose 0.00005, Day 7): B (50%-80% necrosis)
- Sum of % necrosis in Chinese cabbage (Dose 0.00005, Day 10): A (over 80% necrosis)
- Sum of % necrosis in Chinese cabbage (Dose 0.00005, Day 14): A (over 80% necrosis)
- Sum of % necrosis in Chinese cabbage (Dose 0.00005, Day 21): A (over 80% necrosis)
- Sum of % necrosis in Chinese cabbage (Dose 0.0001, Day 0): C (less than 50% necrosis)
- Sum of % necrosis in Chinese cabbage (Dose 0.0001, Day 1): C (less than 50% necrosis)
- Sum of % necrosis in Chinese cabbage (Dose 0.0001, Day 3): C (less than 50% necrosis)
- Sum of % necrosis in Chinese cabbage (Dose 0.0001, Day 7): B (50%-80% necrosis)
- Sum of % necrosis in Chinese cabbage (Dose 0.0001, Day 10): A (over 80% necrosis)
- Sum of % necrosis in Chinese cabbage (Dose 0.0001, Day 14): A (over 80% necrosis)
- Sum of % necrosis in Chinese cabbage (Dose 0.0001, Day 21): A (over 80% necrosis)
- Sum of % necrosis in Chinese cabbage (Dose 0.0005, Day 0): C (less than 50% necrosis)
- Sum of % necrosis in Chinese cabbage (Dose 0.0005, Day 1): C (less than 50% necrosis)
- Sum of % necrosis in Chinese cabbage (Dose 0.0005, Day 3): B (50%-80% necrosis)
- Sum of % necrosis in Chinese cabbage (Dose 0.0005, Day 7): A (over 80% necrosis)
- Sum of % necrosis in Chinese cabbage (Dose 0.0005, Day 10): A (over 80% necrosis)
- Sum of % necrosis in Chinese cabbage (Dose 0.0005, Day 14): A (over 80% necrosis)
- Sum of % necrosis in Chinese cabbage (Dose 0.0005, Day 21): A (over 80% necrosis)
